In ChEMBL document CHEMBL4673289, “Design, synthesis and biological evaluation of imidazolopyridone derivatives as novel BRD4 inhibitors” (Bioorg Med Chem, 2021):
Calls of active or inactive are those of the source. The calls are words filed in the database; no cut-off is given here.

Key:
[1] = biological target: T1, Bromodomain-containing protein 4 (Homo sapiens, UniProt O60885); test: Inhibition of BRD4 (unknown origin) at 1 uM preincubated for 15 mins followed by substrate addition and measured after 1 hr by AlphaScreen assay relative to control; settings: time 75.0 min
[2] = biological target: T1, Bromodomain-containing protein 4; test: Inhibition of BRD4 (unknown origin) preincubated for 15 mins followed by substrate addition and measured after 1 hr by AlphaScreen assay relative to control
[3] = tested on: SMMC-7721; test: Antiproliferative activity against human SMMC-7721 cells assessed as cell growth inhibition at 2 uM measured after 48 to 72 hrs by MTT assay relative to control; assay type: functional; settings: time 48-72 hrs, read-out: GI
[4] = tested on: BXPC-3; test: Antiproliferative activity against human BXPC-3 cells assessed as cell growth inhibition at 2 uM measured after 48 to 72 hrs by MTT assay relative to control; assay type: functional; settings: time 48-72 hrs, read-out: GI
[5] = tested on: PANC-1; test: Antiproliferative activity against human PANC-1 cells assessed as cell growth inhibition at 2 uM measured after 48 to 72 hrs by MTT assay relative to control; assay type: functional; settings: time 48-72 hrs, read-out: GI
[6] = tested on: Panc02; test: Antitumor activity against mouse Panc02 allografted in BALB/c mouse assessed as reduction in tumor weight at 100 mg/kg, ip administered every day for 20 days relative to control; assay type: functional; settings: 480 h, time 20 day, read-out: TGI
[7] = Toxicity in BALB/c mouse allografted with mouse Panc02 cells assessed as effect on body weight at 100 mg/kg, ip administered every day measured after 19 days; assay type: organism-based; settings: in vivo, 456 h, time 19 day
[8] = tested on: Mus musculus; test: Upregulation of caspase 3 in BALB/c mouse allografted with mouse Panc02 cells […] at 100 mg/kg, ip administered every day measured after 20 days by immunohistochemical analysis; assay type: functional, organism-based; settings: time 20.0 day
[9] = tested on: Mus musculus; test: Downregulation of Ki67 expression in BALB/c mouse allografted with mouse Panc02 cells […] at 100 mg/kg, ip administered every day measured after 20 days by immunohistochemical analysis; assay type: functional, organism-based; settings: time 20.0 day

| Compound | inhibition [1] [%] | IC50 [2] [nM] | inhibition of growth at 2 µM [3] [%] | inhibition of growth at 2 µM [4] [%] | inhibition of growth at 2 µM [5] [%] | other results |
| --- | --- | --- | --- | --- | --- | --- |
| CCS(=O)(=O)c1ccc(Oc2cc(-c3c(C)noc3C)ccc2OC)c(-c2cn(C)c(=O)c3cncn23)c1 | 99.9 | 56 | 18.4 | 42.2 | 16.2 |  |
| Cc1noc(C)c1-c1cccc(Oc2ccc(S(C)(=O)=O)cc2-c2cn(C)c(=O)c3cncn23)c1 | 62.7 |  |  |  |  |  |
| CCS(=O)(=O)c1ccc(Oc2ccc(Cl)c(-c3c(C)noc3C)c2)c(-c2cn(C)c(=O)c3cncn23)c1 | 64.9 |  |  |  |  |  |
| CCS(=O)(=O)c1ccc(Oc2cc(-c3c(C)noc3C)ccc2F)c(-c2cn(C)c(=O)c3cncn23)c1 | 99.5 | 152 | 21.3 | 33.2 | 19.6 |  |
| CCS(=O)(=O)c1ccc(Oc2cccc(-c3c(C)noc3C)c2)c(-c2cn(C)c(=O)c3cncn23)c1 | 93.2 | 435 | 18.2 | 41.2 | 21.6 |  |
| CCS(=O)(=O)c1ccc(Oc2cc(-c3c(C)noc3C)ccc2C)c(-c2cn(C)c(=O)c3cncn23)c1 | 95.2 | 261 | 11.4 | 30.2 | 20.6 |  |
| CCS(=O)(=O)c1ccc(Oc2cc(F)c(F)c(F)c2)c(-c2cn(C)c(=O)c3cncn23)c1 | 40.1 |  |  |  |  |  |
| CCS(=O)(=O)c1ccc(Oc2cccc(-c3c(C)noc3C)n2)c(-c2cn(C)c(=O)c3cncn23)c1 | 70.2 |  |  |  |  |  |
| CCS(=O)(=O)c1ccc(Oc2cc(-c3c(C)noc3C)ccc2C#N)c(-c2cn(C)c(=O)c3cncn23)c1 | 31.2 |  |  |  |  |  |
| Nc1ccn([C@@H]2O[C@H](CO)[C@@H](O)C2(F)F)c(=O)n1 [GEMCITABINE] |  |  |  |  |  | inhibition in vivo at 100 mg/kg [6]: 70%; Activity [7]: Non-Toxic; Activity [8]: Active; Activity [9]: Active |
| Cc1sc2c(c1C)C(c1ccc(Cl)cc1)=N[C@@H](CC(=O)C(C)(C)C)c1nnc(C)n1-2 | 99.5 | 88 | 12.2 | 31.1 | 17.1 |  |
| CCS(=O)(=O)c1ccc(Oc2ccc(F)c(-c3c(C)noc3C)c2)c(-c2cn(C)c(=O)c3cncn23)c1 | 78.1 |  |  |  |  |  |
| CCS(=O)(=O)c1ccc(Oc2cc(-c3c(C)noc3C)ccc2Cl)c(-c2cn(C)c(=O)c3cncn23)c1 | 86.3 |  |  |  |  |  |
| CCS(=O)(=O)c1ccc(Oc2ccc(C)c(-c3c(C)noc3C)c2)c(-c2cn(C)c(=O)c3cncn23)c1 | 96.5 | 254 | 19.9 | 35.8 | 23.7 |  |
